Measured values taken from PubChem BioAssay AID192 (DTP/NCI, 2004).
Toxic doses and inconclusive results are not listed. Peptide text beside a SMILES is read from it.

System: BDF1 mice, B16 melanoma ip, median survival T/C
Assay: NCI In Vivo Anticancer Drug Screen. Data for tumor model B16 Melanoma (intraperitoneal) in B6D2F1 (BDF1) mice
Conditions: endpoint: median survival time, higher = longer survival
In short: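 Mice with transplantable tumors; drug vs vehicle groups; endpoint survival or tumor size; value = T/C.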

[1] = dose: 100.0 mg/kg/injection, schedule: Q01DX009 (ip), vehicle: saline with Tween-80
[2] = dose: 200.0 mg/kg/injection, schedule: Q01DX009 (ip), vehicle: saline with Tween-80
[3] = dose: 12.5 mg/kg/injection, schedule: Q01DX009 (ip), vehicle: saline with Tween-80
[4] = dose: 25.0 mg/kg/injection, schedule: Q01DX009 (ip), vehicle: saline with Tween-80
[5] = dose: 50.0 mg/kg/injection, schedule: Q01DX009 (ip), vehicle: saline with Tween-80
[6] = dose: 1.56 mg/kg/injection, schedule: Q01DX009 (ip), vehicle: saline
[7] = dose: 100.0 mg/kg/injection, schedule: Q04DX003 (ip), vehicle: Klucel (hydroxypropylcellulose) (HPC)
[8] = dose: 200.0 mg/kg/injection, schedule: Q04DX003 (ip), vehicle: Klucel (hydroxypropylcellulose) (HPC)
[9] = dose: 400.0 mg/kg/injection, schedule: Q04DX003 (ip), vehicle: Klucel (hydroxypropylcellulose) (HPC)
[10] = dose: 100.0 mg/kg/injection, schedule: Q01DX009 (ip), vehicle: Klucel (hydroxypropylcellulose) (HPC)
[11] = dose: 200.0 mg/kg/injection, schedule: Q01DX009 (ip), vehicle: Klucel (hydroxypropylcellulose) (HPC)
[12] = dose: 400.0 mg/kg/injection, schedule: Q01DX009 (ip), vehicle: Klucel (hydroxypropylcellulose) (HPC)

SMILES: CC(=O)C(C)C(C)=O
- T/C [1]: 88 % of control
- T/C [2]: 90 % of control
- T/C (dose: 400.0 mg/kg/injection, schedule: Q01DX009 (ip), vehicle: saline with Tween-80): 91 % of control

SMILES: O=NN(CCBr)C(=O)Nc1ccccc1
- T/C [3]: 152 % of control
- T/C [4]: 202 % of control
- T/C (dose: 37.5 mg/kg/injection, schedule: Q01DX009 (ip), vehicle: saline with Tween-80): 171 % of control
- T/C [5]: 177 % of control

SMILES: O=CC(=O)c1ccc(O)cc1
- T/C [6]: 105 % of control
- T/C (dose: 3.12 mg/kg/injection, schedule: Q01DX009 (ip), vehicle: saline): 97 % of control
- T/C (dose: 6.25 mg/kg/injection, schedule: Q01DX009 (ip), vehicle: saline): 106 % of control

SMILES: Cc1cc(NS(=O)(=O)c2ccc(N)cc2)no1
- T/C [7]: 97 % of control
- T/C [8]: 97 % of control
- T/C [9]: 93 % of control

SMILES: CCCC(CCC)(C(=O)OCC)C(=O)OCC
- T/C [10]: 92 % of control
- T/C [7]: 105 % of control
- T/C [11]: 96 % of control
- T/C [8]: 97 % of control
- T/C [12]: 92 % of control
- T/C [9]: 91 % of control

SMILES: COc1nc(NC(C)C)nc(NC(C)C)n1
- T/C [5]: 102 % of control
- T/C (dose: 66.0 mg/kg/injection, schedule: Q01DX009 (ip), vehicle: saline with Tween-80): 93 % of control
- T/C [1]: 86 % of control
- T/C (dose: 150.0 mg/kg/injection, schedule: Q01DX009 (ip), vehicle: saline with Tween-80): 97 % of control
- T/C [2]: 105 % of control

SMILES: CC(=O)CC(C)(C)C1CCCCC1
- T/C (dose: 12.5 mg/kg/injection, schedule: Q01DX009 (ip), vehicle: water): 107 % of control
- T/C (dose: 25.0 mg/kg/injection, schedule: Q01DX009 (ip), vehicle: water): 98 % of control
- T/C (dose: 50.0 mg/kg/injection, schedule: Q01DX009 (ip), vehicle: water): 95 % of control
- T/C (dose: 100.0 mg/kg/injection, schedule: Q01DX009 (ip), vehicle: water): 102 % of control
- T/C (dose: 200.0 mg/kg/injection, schedule: Q01DX009 (ip), vehicle: water): 88 % of control

SMILES: CSCCC(N)C(=O)NC(CC(N)=O)C(=O)O (stereo not drawn) (H-Met-Asn-OH; configuration not given here)
- T/C (dose: 25.0 mg/kg/injection, schedule: Q01DX009 (ip), vehicle: saline): 103 % of control
- T/C (dose: 50.0 mg/kg/injection, schedule: Q01DX009 (ip), vehicle: saline): 108 % of control
- T/C (dose: 100.0 mg/kg/injection, schedule: Q01DX009 (ip), vehicle: saline): 96 % of control
- T/C (dose: 200.0 mg/kg/injection, schedule: Q01DX009 (ip), vehicle: saline): 89 % of control

SMILES: Cc1ccc2c(c1)n([O-])c1cc(Cl)ccc1[n+]2=O
- T/C [3]: 115 % of control
- T/C [1]: 122 % of control

SMILES: O=C(CCl)Nc1nccs1
- T/C [3]: 103 % of control
- T/C [4]: 100 % of control
- T/C [5]: 93 % of control
- T/C [1]: 87 % of control

SMILES: Nc1ncnc2c1cnn2C1OC(CO)C(O)C1O (stereo unspecified)
- T/C [3]: 113 % of control
- T/C [4]: 109 % of control

SMILES: O=C(CCCN1CCC2(CC1)C(=O)NCN2c1ccccc1)c1ccc(F)cc1
- T/C (dose: 0.39 mg/kg/injection, schedule: Q01DX009 (ip), vehicle: saline): 92 % of control
- T/C (dose: 0.78 mg/kg/injection, schedule: Q01DX009 (ip), vehicle: saline): 89 % of control
- T/C [6]: 94 % of control

SMILES: COc1cc(/C=C(/C)[N+](=O)[O-])ccc1O
- T/C (dose: 50.0 mg/kg/injection, schedule: Q01DX009 (ip), vehicle: carboxymethylcellulose (CMC)): 121 % of control
- T/C (dose: 100.0 mg/kg/injection, schedule: Q01DX009 (ip), vehicle: carboxymethylcellulose (CMC)): 102 % of control

SMILES: Cc1cccc(C2NC(=O)c3ccccc3N2)c1 (stereo unspecified)
- T/C [10]: 109 % of control
- T/C [11]: 112 % of control
- T/C [12]: 115 % of control

SMILES: NC(CCCC(=O)O)P(=O)(O)O (stereo unspecified)
- T/C (dose: 50.0 mg/kg/injection, schedule: Q01DX009 (ip), vehicle: Klucel (hydroxypropylcellulose) (HPC)): 98 % of control
- T/C [10]: 98 % of control
